{"source": "BindingDB's records for doi:10.7270/Q2F769ZM", "about": "(The Scripps Research Institute Molecular Screening Center, 2007)", "target": "Rho-associated protein kinase 2 (Homo sapiens, UniProt O75116)", "sequence (O75116 whole entry)": "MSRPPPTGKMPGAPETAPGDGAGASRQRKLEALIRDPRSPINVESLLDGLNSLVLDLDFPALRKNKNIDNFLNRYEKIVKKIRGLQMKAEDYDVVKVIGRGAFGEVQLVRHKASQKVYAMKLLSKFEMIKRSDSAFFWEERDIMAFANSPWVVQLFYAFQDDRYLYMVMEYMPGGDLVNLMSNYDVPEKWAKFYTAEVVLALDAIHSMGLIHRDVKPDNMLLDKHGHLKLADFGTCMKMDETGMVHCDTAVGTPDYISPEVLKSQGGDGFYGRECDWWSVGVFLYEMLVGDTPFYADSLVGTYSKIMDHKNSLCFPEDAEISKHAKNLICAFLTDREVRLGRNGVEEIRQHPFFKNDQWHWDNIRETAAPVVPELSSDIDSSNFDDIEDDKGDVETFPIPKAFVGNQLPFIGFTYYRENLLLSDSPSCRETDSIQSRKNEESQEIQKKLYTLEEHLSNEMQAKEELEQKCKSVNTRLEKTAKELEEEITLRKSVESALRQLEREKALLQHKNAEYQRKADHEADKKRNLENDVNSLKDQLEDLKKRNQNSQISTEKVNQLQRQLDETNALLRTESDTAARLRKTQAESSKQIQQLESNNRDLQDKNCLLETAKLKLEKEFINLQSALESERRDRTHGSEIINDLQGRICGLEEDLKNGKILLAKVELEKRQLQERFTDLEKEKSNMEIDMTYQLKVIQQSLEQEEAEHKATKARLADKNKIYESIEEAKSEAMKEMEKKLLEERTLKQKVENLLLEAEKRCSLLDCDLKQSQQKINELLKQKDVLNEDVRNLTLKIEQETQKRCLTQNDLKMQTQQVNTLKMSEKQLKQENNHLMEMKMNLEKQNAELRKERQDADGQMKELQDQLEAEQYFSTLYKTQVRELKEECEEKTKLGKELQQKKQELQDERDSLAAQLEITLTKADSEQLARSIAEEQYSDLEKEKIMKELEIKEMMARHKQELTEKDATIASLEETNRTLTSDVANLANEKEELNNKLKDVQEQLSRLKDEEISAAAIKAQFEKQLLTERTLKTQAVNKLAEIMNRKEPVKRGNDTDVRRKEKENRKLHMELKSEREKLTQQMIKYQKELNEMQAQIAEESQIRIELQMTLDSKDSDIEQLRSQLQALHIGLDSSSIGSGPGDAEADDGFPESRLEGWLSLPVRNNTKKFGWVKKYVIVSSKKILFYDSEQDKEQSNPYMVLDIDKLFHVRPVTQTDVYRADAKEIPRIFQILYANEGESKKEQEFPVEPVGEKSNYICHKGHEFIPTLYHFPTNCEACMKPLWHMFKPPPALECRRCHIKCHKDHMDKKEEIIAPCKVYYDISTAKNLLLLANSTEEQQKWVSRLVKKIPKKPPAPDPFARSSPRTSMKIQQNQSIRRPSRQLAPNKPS", "experiment": "ROCK2 kinase inhibitor potency, dose response, biochemical, Kinase-Glo luminescence, S6 peptide, 1536-well (AID 644)", "key": {"[1]": {"conditions": "inactive by the depositor's call"}}, "note": "Where a name gives a salt, the structure may show the parent alone."}
{"smiles": "NC(=O)c1c(-c2cccs2)csc1N", "note": "[2-amino-4-(2-thienyl)thiophene-3-carboxamide]", "values": [{"measurement": "IC50", "setting": "[1]", "result": 19.5, "unit": "µM"}]}
{"smiles": "N#CC1C(=N)Oc2cc(O)ccc2C1c1ccncc1", "note": "(stereo not drawn) [2-amino-7-hydroxy-4-(4-pyridyl)-4H-chromene-3-carbonitrile]", "values": [{"measurement": "IC50", "result": 127, "unit": "µM"}]}
{"smiles": "O=C(Nc1ccc(N2CCOCC2)cc1)Nc1ccc2nc(-c3ccco3)c(-c3ccco3)nc2c1", "note": "[N-(2,3-di-2-furyl-6-quinoxalinyl)-N'-[4-(4-morpholinyl)phenyl]urea]", "values": [{"measurement": "IC50", "setting": "[1]", "result": 25.6, "unit": "µM"}]}
{"smiles": "O=C(Nc1ccncc1)Nc1ccc(F)cc1F", "note": "[1-(2,4-difluorophenyl)-3-(4-pyridyl)urea]", "values": [{"measurement": "IC50", "setting": "[1]", "result": 19, "unit": "µM"}]}
{"smiles": "CC(=O)c1ccc(OCC(O)COc2ccc(C(C)=O)cc2)cc1", "note": "[1-[4-[3-(4-acetylphenoxy)-2-hydroxy-propoxy]phenyl]ethanone]", "values": [{"measurement": "IC50", "result": "> 59.6", "unit": "µM"}]}
{"smiles": "CC(C)CCN1CC(C(=O)N2CCN(c3ccc(F)cc3)CC2)CC1=O", "note": "(stereo not drawn) [4-[4-(4-fluorophenyl)piperazin-1-yl]carbonyl-1-(3-methylbutyl)pyrrolidin-2-one]", "values": [{"measurement": "IC50", "result": "> 59.6", "unit": "µM"}]}
{"smiles": "C1=C(c2c[nH]c3ccccc23)CCNC1", "values": [{"measurement": "IC50", "result": 2.53, "unit": "µM"}]}
{"smiles": "COc1cc(C=Nn2nnnc2N)ccc1OCc1ccc(F)cc1", "note": "[1-[[4-[(4-fluorophenyl)methoxy]-3-methoxy-phenyl]methylideneamino]-1,2,3,4-tetrazol-5-amine]", "values": [{"measurement": "IC50", "result": 17.5, "unit": "µM"}]}
{"smiles": "Clc1ccccc1-c1nn2c(-c3ccncc3)nnc2s1", "note": "[6-(2-chlorophenyl)-3-(4-pyridinyl)[1,2,4]triazolo[3,4-b][1,3,4]thiadiazole]", "values": [{"measurement": "IC50", "result": "> 59.6", "unit": "µM"}]}
{"smiles": "C(=Nc1nc2ccccc2n1CCN1CCCCC1)c1cccs1", "note": "[MLS000038975]", "values": [{"measurement": "IC50", "result": "> 59.6", "unit": "µM"}]}
{"smiles": "Oc1ncnc2cc(Cl)ccc12", "note": "[7-Chloro-quinazolin-4-ol]", "values": [{"measurement": "IC50", "result": "> 19.9", "unit": "µM"}]}
{"smiles": "Cc1c(C(=O)N2CCCCC2)sc(N)c1C#N", "note": "[2-amino-4-methyl-5-(piperidine-1-carbonyl)thiophene-3-carbonitrile]", "values": [{"measurement": "IC50", "setting": "[1]", "result": 86.7, "unit": "µM"}]}
{"smiles": "O=C(Nn1c(=S)[nH]c2ccccc2c1=O)c1ccncc1", "values": [{"measurement": "IC50", "result": "> 19.9", "unit": "µM"}]}
{"smiles": "O=NCc1c[nH]c2ccccc12", "note": "[MLS000104363]", "values": [{"measurement": "IC50", "result": 4.81, "unit": "µM"}]}
{"smiles": "Nc1cccc2cnccc12", "note": "[isoquinolin-5-amine]", "values": [{"measurement": "IC50", "setting": "[1]", "result": 30.1, "unit": "µM"}]}
{"smiles": "COc1ccc(CCC(=O)Nc2nc3c(s2)CN(C)CC3)cc1OC", "note": "[3-(3,4-dimethoxyphenyl)-N-(5-methyl-6,7-dihydro-4H-[1,3]thiazolo[5,4-c]pyridin-2-yl)propanamide]", "values": [{"measurement": "IC50", "result": "> 59.6", "unit": "µM"}]}
{"smiles": "Cc1cc(NC(=O)CSc2nc(-c3ccccc3)cs2)no1", "note": "[MLS000066259]", "values": [{"measurement": "IC50", "result": "> 59.6", "unit": "µM"}]}
{"smiles": "Cc1[nH]c2ccccc2c1C1=CCNCC1", "note": "[MLS000045807]", "values": [{"measurement": "IC50", "result": 9.63, "unit": "µM"}]}
{"smiles": "Cc1c(C)n(C)c2ccc(C(=O)NCc3cccs3)cc12", "note": "[1,2,3-trimethyl-N-(2-thenyl)indole-5-carboxamide]", "values": [{"measurement": "IC50", "setting": "[1]", "result": 12, "unit": "µM"}]}
{"smiles": "Cc1c2ccncc2c(C)c2c1[nH]c1ccccc12", "note": "[5,11-dimethyl-2H-pyrido[4,3-b]carbazole]", "values": [{"measurement": "IC50", "result": 6.68, "unit": "µM"}]}
{"smiles": "O=C(NCc1ccc2c(c1)OCO2)c1ccc2snnc2c1", "note": "[Benzo[1,2,3]thiadiazole-5-carboxylic acid (benzo[1,3]dioxol-5-ylmethyl)-amide]", "values": [{"measurement": "IC50", "setting": "[1]", "result": 11.6, "unit": "µM"}]}
{"smiles": "Nc1nonc1-c1nc2ccccc2[nH]1", "values": [{"measurement": "IC50", "result": 23.1, "unit": "µM"}]}
{"smiles": "Cc1cc(C(=O)CN2C(=O)NC3(CCCCC3)C2=O)c(C)n1Cc1ccc2c(c1)OCO2", "note": "[3-[2-(2,5-dimethyl-1-piperonyl-pyrrol-3-yl)-2-keto-ethyl]-1,3-diazaspiro[4.5]decane-2,4-quinone]", "values": [{"measurement": "IC50", "result": "> 59.6", "unit": "µM"}]}
{"smiles": "c1cn(CCCNc2ncnc3nc[nH]c23)cn1", "note": "[N-[3-(1-imidazolyl)propyl]-7H-purin-6-amine]", "values": [{"measurement": "IC50", "result": 6.18, "unit": "µM"}]}
{"smiles": "CCN1C(=O)N(CC)C(O)(c2ccccc2)C1(O)c1ccccc1", "note": "(stereo not drawn) [1,3-diethyl-4,5-bis(oxidanyl)-4,5-diphenyl-imidazolidin-2-one]", "values": [{"measurement": "IC50", "result": "> 59.6", "unit": "µM"}]}
{"smiles": "COC(=O)c1cccc2c1-c1ccccc1C2N=O", "note": "(stereo not drawn) [(9Z)-9-hydroximinofluorene-4-carboxylic acid methyl ester]", "values": [{"measurement": "IC50", "result": "> 19.9", "unit": "µM"}]}
{"smiles": "CCc1cc2c(O)ncnc2s1", "note": "[MLS000029626]", "values": [{"measurement": "IC50", "result": 5.72, "unit": "µM"}]}
{"smiles": "Cc1[nH]nc2c1C(c1ccc(-c3ccccc3C#N)o1)C(C#N)C(=N)O2", "note": "(stereo not drawn)", "values": [{"measurement": "IC50", "result": "> 19.9", "unit": "µM"}]}
{"smiles": "c1ccc2c(c1)[nH]c1cnccc12", "note": "[9H-pyrido[3,4-b]indole]", "values": [{"measurement": "IC50", "result": "> 19.9", "unit": "µM"}]}
{"smiles": "Cc1ccc(S(=O)(=O)NCCCOC(=O)Nc2ccncc2)cc1", "note": "[3-[(4-methylphenyl)sulfonylamino]propyl N-pyridin-4-ylcarbamate]", "values": [{"measurement": "IC50", "setting": "[1]", "result": 20.6, "unit": "µM"}]}
{"smiles": "CCOC(=O)C1=C(CSc2nc(-c3ccncc3)ccc2C#N)OC(=N)C(C#N)C1c1cccnc1", "note": "(stereo not drawn) [6-amino-5-cyano-2-[[(3-cyano-6-pyridin-4-yl-2-pyridinyl)thio]methyl]-4-(3-pyridinyl)-4H-pyran-3-carboxylic acid ethyl ester]", "values": [{"measurement": "IC50", "result": "> 19.9", "unit": "µM"}]}
{"smiles": "c1coc(CNc2ncnc3sc4c(c23)CCCCC4)c1", "note": "[2-furfuryl(6,7,8,9-tetrahydro-5H-cyclohepta[4,5]thieno[1,2-c]pyrimidin-4-yl)amine]", "values": [{"measurement": "IC50", "result": "> 59.6", "unit": "µM"}]}
{"smiles": "O=C(O)c1cc(NCc2ccc3c(c2)OCO3)ccc1N1CCOCC1", "note": "[2-morpholino-5-(piperonylamino)benzoic acid]", "values": [{"measurement": "IC50", "result": "> 59.6", "unit": "µM"}]}
{"smiles": "O=C(c1ccccc1)c1ccc2[nH]cnc2c1", "note": "[MLS000034982]", "values": [{"measurement": "IC50", "setting": "[1]", "result": 16.3, "unit": "µM"}]}
{"smiles": "Cn1c(CSCc2ccc(Cl)c(Cl)c2)nnc1SCC(=O)Nc1nccs1", "note": "[2-[(5-{[(3,4-dichlorobenzyl)thio]methyl}-4-methyl-4H-1,2,4-triazol-3-yl)thio]-N-1,3-thiazol-2-ylacetamide]", "values": [{"measurement": "IC50", "result": "> 19.9", "unit": "µM"}]}
{"smiles": "O=C(CCCOc1ccccc1)Nc1ccncc1", "note": "[4-Phenoxy-N-pyridin-4-yl-butyramide]", "values": [{"measurement": "IC50", "setting": "[1]", "result": 14.2, "unit": "µM"}]}
{"smiles": "CC(=O)n1cc(-c2ccncc2)c2ccccc21", "note": "[1-(3-pyridin-4-yl-1-indolyl)ethanone;hydrochloride]", "values": [{"measurement": "IC50", "result": 8.16, "unit": "µM"}]}
{"smiles": "CCN1CCN(Cc2nnnn2C(C)(C)C)CC1", "note": "[1-(1-tert-Butyl-1H-tetrazol-5-ylmethyl)-4-ethyl-piperazine]", "values": [{"measurement": "IC50", "setting": "[1]", "result": 17.4, "unit": "µM"}]}
{"smiles": "O=C(Nc1nc(-c2ccncc2)cs1)C1COc2ccccc2O1", "note": "(stereo not drawn)", "values": [{"measurement": "IC50", "result": "< 0.00303", "unit": "µM"}]}
{"smiles": "CCN(CC)CCNC(=O)CCCCn1c(=S)[nH]c2c([nH]c3ccc(OC)cc32)c1=O", "note": "[N-[2-(diethylamino)ethyl]-5-(8-methoxy-4-oxo-2-thioxo-1,2,4,5-tetrahydro-3H-pyrimido[5,4-b]indol-3-yl)pentanamide]", "values": [{"measurement": "IC50", "result": "> 19.9", "unit": "µM"}]}
{"smiles": "C[C@H]1CNCCN1S(=O)(=O)c1cccc2cnccc12", "values": [{"measurement": "IC50", "result": 0.1, "unit": "µM"}]}
{"smiles": "Cc1ccccc1NC(=O)Cn1c(C)nc2ccc(NC(=O)C3CC3)cc2c1=O", "note": "[Cyclopropanecarboxylic acid [2-methyl-4-oxo-3-(o-tolylcarbamoyl-methyl)-3,4-dihydro-quinazolin-6-yl]-amide]", "values": [{"measurement": "IC50", "result": "> 59.6", "unit": "µM"}]}
{"smiles": "CC(C)(C)C(=O)c1sc(Nc2ccccc2)nc1N", "note": "[1-(4-amino-2-anilino-1,3-thiazol-5-yl)-2,2-dimethyl-1-propanone]", "values": [{"measurement": "IC50", "result": "> 59.6", "unit": "µM"}]}
{"smiles": "CN1C(=O)CSc2ccc(NC(=O)NCc3cccnc3)cc21", "note": "[1-(3-keto-4-methyl-1,4-benzothiazin-6-yl)-3-(3-pyridylmethyl)urea]", "values": [{"measurement": "IC50", "setting": "[1]", "result": 10.1, "unit": "µM"}]}
{"smiles": "NC(=O)c1sc2nc3c(c(-c4ccco4)c2c1N)CCC3", "note": "[3-amino-4-(2-furyl)-6,7-dihydro-5H-cyclopenta[b]thieno[3,2-e]pyridine-2-carboxamide]", "values": [{"measurement": "IC50", "result": "> 59.6", "unit": "µM"}]}
{"smiles": "Cc1cc2c(ccc3[nH]onc32)n1", "note": "[MLS000038925]", "values": [{"measurement": "IC50", "setting": "[1]", "result": 18.8, "unit": "µM"}]}
{"smiles": "N#Cc1cccc(NC(=O)CSc2ccccc2)c1", "note": "[MLS000099417]", "values": [{"measurement": "IC50", "result": "> 19.9", "unit": "µM"}]}
{"smiles": "NC(=O)c1sc2nc(N3CCCCC3)c3c(c2c1N)CCCC3", "note": "[1-amino-5-(1-piperidinyl)-6,7,8,9-tetrahydrothieno[2,3-c]isoquinoline-2-carboxamide]", "values": [{"measurement": "IC50", "setting": "[1]", "result": 143, "unit": "µM"}]}
{"smiles": "COC(=O)c1sc2cnccc2c1N", "note": "[3-amino-2-thieno[2,3-c]pyridinecarboxylic acid methyl ester]", "values": [{"measurement": "IC50", "result": 8.3, "unit": "µM"}]}
{"smiles": "Nc1nc2ccccc2n1C(=O)CCc1ccccc1", "note": "[1-(2-Amino-benzoimidazol-1-yl)-3-phenyl-propan-1-one]", "values": [{"measurement": "IC50", "result": "> 59.6", "unit": "µM"}]}
{"smiles": "N#Cc1c(N=Cc2cccs2)sc2c1CCCCC2", "note": "[2-(2-thenylideneamino)-5,6,7,8-tetrahydro-4H-cyclohepta[b]thiophene-3-carbonitrile]", "values": [{"measurement": "IC50", "result": "> 59.6", "unit": "µM"}]}
{"smiles": "COc1cc(N=CC2C(=O)Nc3ccccc32)cc(OC)c1OC", "note": "(stereo not drawn)", "values": [{"measurement": "IC50", "result": 10.5, "unit": "µM"}]}
{"smiles": "CC(=O)c1cc(C#N)c(SCc2ccncc2)nc1C", "note": "[5-acetyl-6-methyl-2-(4-pyridylmethylthio)nicotinonitrile]", "values": [{"measurement": "IC50", "setting": "[1]", "result": 12.3, "unit": "µM"}]}
